Data from ChEMBL document CHEMBL3045235, “Synthesis of aspirin eugenol ester and its biological activity” (Med Chem Res, 2012).

Columns and labels:
Mus musculus [1] = test: Analgesic activity in Mus musculus (mouse) assessed as pain threshold at 1.1 mmol/kg, ig after 30 min by hot plate test (reference value: 24.88 +/- 5.28 sec); type: functional
Rattus norvegicus [2] = test: Antipyretic activity against yeast-induced hyperthermia in Rattus norvegicus (rat) assessed as change in body temperature at 1.5 mmol/kg after 2 hr; type: functional, organism-based
Mus musculus [3] = test: Toxicity in ig dosed Mus musculus (mouse) assessed as effect on heart after 7 days; type: organism-based; conditions: in vivo, po, 168 h
Mus musculus [4] = test: Anti-inflammatory activity against xylene-induced ear swelling Mus musculus (mouse) model as suppression of ear swelling at 0.56 mmol/kg, ig measured 1 hr after xylene challenge; type: functional; conditions: po
Mus musculus [5] = test: Analgesic activity in Mus musculus (mouse) assessed as pain threshold at 0.56 mmol/kg, ig after 60 min by hot plate test (reference value: 21.28 +/- 3 sec); type: functional
Mus musculus [6] = test: Toxicity in ig dosed Mus musculus (mouse) assessed as effect on kidney after 7 days; type: organism-based; conditions: in vivo, po, 168 h
[7] = Toxicity in ig dosed Mus musculus (mouse); type: organism-based; conditions: in vivo, po
Rattus norvegicus [8] = test: Antipyretic activity against yeast-induced hyperthermia in Rattus norvegicus (rat) assessed as change in body temperature at 2 mmol/kg after 4 hr; type: functional, organism-based
Rattus norvegicus [9] = test: Antipyretic activity against yeast-induced hyperthermia in Rattus norvegicus (rat) assessed as change in body temperature at 1.5 mmol/kg after 6 hr; type: functional, organism-based
Rattus norvegicus [10] = test: Antipyretic activity against yeast-induced hyperthermia in Rattus norvegicus (rat) assessed as change in body temperature at 2 mmol/kg after 2 hr; type: functional, organism-based
Mus musculus [11] = test: Anti-inflammatory activity against xylene-induced ear swelling Mus musculus (mouse) model as suppression of ear swelling at 1.11 mmol/kg, ig measured 1 hr after xylene challenge; type: functional; conditions: po
Mus musculus [12] = test: Analgesic activity in Mus musculus (mouse) assessed as pain threshold at 1.1 mmol/kg, ig after 120 min by hot plate test (reference value: 19.06 +/- 4.55 sec); type: functional
Mus musculus [13] = test: Toxicity in ig dosed Mus musculus (mouse) assessed as effect on heart measured post autopsy; type: organism-based; conditions: in vivo, po
Mus musculus [14] = test: Analgesic activity in Mus musculus (mouse) assessed as pain threshold at 0.56 mmol/kg, ig after 30 min by hot plate test (reference value: 24.88 +/- 5.28 sec); type: functional
Mus musculus [15] = test: Toxicity in ig dosed Mus musculus (mouse) assessed as effect on liver measured post autopsy; type: organism-based; conditions: in vivo, po
Mus musculus [16] = test: Analgesic activity in Mus musculus (mouse) assessed as pain threshold at 1.1 mmol/kg, ig after 60 min by hot plate test (reference value: 21.28 +/- 3 sec); type: functional
Mus musculus [17] = test: Analgesic activity in Mus musculus (mouse) assessed as pain threshold at 0.56 mmol/kg, ig after 180 min by hot plate test (reference value: 17.67 +/- 5.78 sec); type: functional
Mus musculus [18] = test: Analgesic activity in Mus musculus (mouse) assessed as pain threshold at 0.56 mmol/kg, ig after 120 min by hot plate test (reference value: 19.06 +/- 4.55 sec); type: functional
Mus musculus [19] = test: Toxicity in ig dosed Mus musculus (mouse) assessed as effect on kidney measured post autopsy; type: organism-based; conditions: in vivo, po
Mus musculus [20] = test: Analgesic activity in Mus musculus (mouse) assessed as pain threshold at 1.1 mmol/kg, ig after 180 min by hot plate test (reference value: 17.67 +/- 5.78 sec); type: functional
Mus musculus [21] = test: Toxicity in ig dosed Mus musculus (mouse) assessed as effect on spleen measured post autopsy; type: organism-based; conditions: in vivo, po
Mus musculus [22] = test: Toxicity in ig dosed Mus musculus (mouse) assessed as effect on liver after 7 days; type: organism-based; conditions: in vivo, po, 168 h
Mus musculus [23] = test: Toxicity in ig dosed Mus musculus (mouse) assessed as effect on spleen after 7 days; type: organism-based; conditions: in vivo, po, 168 h
Rattus norvegicus [24] = test: Antipyretic activity against yeast-induced hyperthermia in Rattus norvegicus (rat) assessed as change in body temperature at 1.5 mmol/kg after 4 hr; type: functional, organism-based
Mus musculus [25] = test: Toxicity in ig dosed Mus musculus (mouse) assessed as mortality within 24 hr; type: organism-based; conditions: in vivo, po
Rattus norvegicus [26] = test: Antipyretic activity against yeast-induced hyperthermia in Rattus norvegicus (rat) assessed as change in body temperature at 1 mmol/kg after 2 hr; type: functional, organism-based
Rattus norvegicus [27] = test: Antipyretic activity against yeast-induced hyperthermia in Rattus norvegicus (rat) assessed as change in body temperature at 2 mmol/kg after 6 hr; type: functional, organism-based
Rattus norvegicus [28] = test: Antipyretic activity against yeast-induced hyperthermia in Rattus norvegicus (rat) assessed as change in body temperature at 1 mmol/kg after 6 hr; type: functional, organism-based
Rattus norvegicus [29] = test: Antipyretic activity against yeast-induced hyperthermia in Rattus norvegicus (rat) assessed as change in body temperature at 1 mmol/kg after 4 hr; type: functional, organism-based

Structure (SMILES)	Time (Mus musculus [1]) [s]	deltaT (Rattus norvegicus [2]) [°C]	LD50 [7] [mg/kg]	deltaT (Rattus norvegicus [9]) [°C]	inhibition in vivo at 1110 µmol/kg (Mus musculus [11]) [%]	Time (Mus musculus [12]) [s]	Time (Mus musculus [16]) [s]	Time (Mus musculus [20]) [s]	deltaT (Rattus norvegicus [24]) [°C]	other results
C=CCc1ccc(OC(=O)c2ccccc2OC(C)=O)c(OC)c1 [ASPIRIN EUGENOL ESTER]	29.5	-1.14	10900	-1.45	45.9	28.74	28.8	29.69	-1.4	Activity (Mus musculus [3]): Non-toxic; inhibition in vivo at 560 µmol/kg (Mus musculus [4]): 44.8%; Time (Mus musculus [5]): 28.81 s; Activity (Mus musculus [6]): Non-toxic; deltaT (Rattus norvegicus [8]): -2.46 °C; deltaT (Rattus norvegicus [10]): -2.09 °C; Activity (Mus musculus [13]): Non-toxic; Time (Mus musculus [14]): 24.45 s; Activity (Mus musculus [15]): Non-toxic; Time (Mus musculus [17]): 29.13 s; Time (Mus musculus [18]): 26.85 s; Activity (Mus musculus [19]): Non-toxic; Activity (Mus musculus [21]): Non-toxic; Activity (Mus musculus [22]): Non-toxic; Activity (Mus musculus [23]): Non-toxic; Activity (Mus musculus [25]): Toxic; deltaT (Rattus norvegicus [26]): -1.2 °C; deltaT (Rattus norvegicus [27]): -2.49 °C; deltaT (Rattus norvegicus [28]): -1.32 °C; deltaT (Rattus norvegicus [29]): -1.29 °C
C=CCc1ccc(O)c(OC)c1 [EUGENOL]	30.76	-0.94	3000	-1.21	32.9	24.86	28.01	25.5	-1.11	
CC(=O)Oc1ccccc1C(=O)O [ASPIRIN]		-2.19	250	-1.78	45.2				-1.8	
